Reference: the supplement of paper PMC11061612

Tests used:
Experiment in all cases: combination Emax (second highest fraction inhibited in the dose matrix, 72 h); higher = more inhibition; extreme values may be limits of the assay
[1] = system: DEL (T-Cell Non-Hodgkin's Lymphoma)
Summary of the method: (§1)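 After 24 hours at 37°C and 5% CO2 in 1536-well plates, cells in DMEM/F12 or RPMI plus 10% FBS received two-drug dose matrices for 72 hours. Viability came from CellTiter-Glo 2.0 luminescence and was scaled as inhibition, anchored at 0 by vehicle wells and at 1 by blank wells. Combination Emax is taken as the second-highest inhibition in the matrix, and Bliss excess as the observed combination effect less EA + EB − EA·EB, with EA and EB the single-agent effects.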

[2] = system: HOS (Osteosarcoma)
Summary of the method: as §1

[3] = system: ES4 (Ewing's Sarcoma)
Summary of the method: as §1

[4] = system: HT-1376 (Bladder Carcinoma)
Summary of the method: as §1

[5] = system: NCI-H2085 (Non-Small Cell Lung Carcinoma)
Summary of the method: as §1

[6] = system: HO-1-N-1 (Oral Cavity Carcinoma)
Summary of the method: as §1

[7] = system: RO82-W-1 (Thyroid Gland Carcinoma)
Summary of the method: as §1

[8] = system: TCCSUP (Bladder Carcinoma)
Summary of the method: as §1

[9] = system: SK-ES-1 (Ewing's Sarcoma)
Summary of the method: as §1

[10] = system: NB10 (Neuroblastoma)
Summary of the method: as §1

[11] = system: T98G (Glioblastoma)
Summary of the method: as §1

[12] = system: 42-MG-BA (Glioblastoma)
Summary of the method: as §1

[13] = system: CCRF-CEM (T-Lymphoblastic Leukemia)
Summary of the method: as §1

[14] = system: Daoy (Other Solid Carcinomas)
Summary of the method: as §1

[15] = system: ME-1 (Acute Myeloid Leukemia)
Summary of the method: as §1

[16] = system: KURAMOCHI (Ovarian Carcinoma)
Summary of the method: as §1

[17] = system: HCC-78 (Lung Adenocarcinoma)
Summary of the method: as §1

[18] = system: Hs-578-T (Breast Carcinoma)
Summary of the method: as §1

[19] = system: Ramos-2G6-4C10 (Burkitt's Lymphoma)
Summary of the method: as §1

[20] = system: UM-UC-3 (Bladder Carcinoma)
Summary of the method: as §1

Compound | combination Emax [1] | combination Emax [2] | combination Emax [3] | combination Emax [4] | combination Emax [5] | combination Emax [6] | combination Emax [7] | combination Emax [8] | combination Emax [9] | combination Emax [10] | combination Emax [11] | combination Emax [12] | combination Emax [13] | combination Emax [14] | combination Emax [15] | combination Emax [16] | combination Emax [17] | combination Emax [18] | combination Emax [19] | combination Emax [20]
C[C@@H](c1ccc2nccn2c1)n1nnc2ncc(-c3cnn(C)c3)nc21 [Savolitinib] + CC1(C)CCC(CN2CCN(c3ccc(C(=O)NS(=O)(=O)c4ccc(NCC5CCOCC5)c([N+](=O)[O-])c4)c(Oc4cnc5[nH]ccc5c4)c3)CC2)=C(c2ccc(Cl)cc2)C1 [Venetoclax] (first compound max 1 µM, 7x7, partner max 1 µM) | 0.0701 | 0.205 | 0.113 | 0.103 | 0.107 | 0.158 | 0.169 | 0.143 | 0.197 | 0.149 | 0.159 | 0.166 | 0.124 | 0.152 | 1 | 0.15 | 0.145 | 0.312 | 0.169 | 0.143
C[C@@H](c1ccc2nccn2c1)n1nnc2ncc(-c3cnn(C)c3)nc21 [Savolitinib] + Cc1c2c(nn1C)CSCc1cc(n(C)n1)CSc1cc(c3ccccc3c1)OCCCc1c(C(=O)O)n(C)c3c-2c(Cl)ccc13 [AZD5991] (first compound max 1 µM, 7x7, partner max 1 µM) | 1 | 0.278 | 0.117 | 0.179 | 0.158 | 0.488 | 0.169 | 0.252 | 0.781 | 0.202 | 0.12 | 0.192 | 0.151 | 0.126 | 0.397 | 0.286 | 0.18 | 0.47 | 0.975 | 0.14
Cn1cnc2c(F)c(Nc3ccc(Br)cc3Cl)c(C(=O)NOCCO)cc21 [Selumetinib] + C=CCn1c(=O)c2cnc(Nc3ccc(N4CCN(C)CC4)cc3)nc2n1-c1cccc(C(C)(C)O)n1 [AZD1775] (first compound max 10 µM, partner max 1 µM) | 1 | 0.222 | 0.433 | 0.362 | 0.271 | 0.718 | 0.183 | 0.429 | 0.944 | 0.712 | 0.699 | 0.282 | 0.996 | 0.844 | 0.484 | 0.65 | 0.345 | 0.577 | 0.997 | 0.268
Cn1cnc2c(F)c(Nc3ccc(Br)cc3Cl)c(C(=O)NOCCO)cc21 [Selumetinib] + CC(C)n1c(=O)n(C)c2cnc3cc(F)c(-c4ccc(OCCCN5CCCCC5)nc4)cc3c21 [AZD1390] (first compound max 10 µM, 7x7, partner max 0.3 µM) | 0.237 | 0.11 | 0.0668 | 0.157 | 0.191 | 0.506 | 0.125 | 0.109 | 0.19 | 0.32 | 0.191 | 0.185 | 0.108 | 0.126 | 0.434 | 0.194 | 0.123 | 0.369 | 0.137 | 0.187
Cn1cnc2c(F)c(Nc3ccc(Br)cc3Cl)c(C(=O)NOCCO)cc21 [Selumetinib] + CCN(CCO)CCCOc1ccc2c(Nc3cc(CC(=O)Nc4cccc(F)c4)[nH]n3)ncnc2c1 [AZD2811] (first compound max 10 µM, 7x7, partner max 1 µM) | 0.965 | 0.198 | 0.145 | 0.198 | 0.492 | 0.737 | 0.203 | 0.217 | 0.96 | 0.397 | 0.226 | 0.447 | 0.968 | 0.356 | 0.413 | 0.251 | 0.267 | 0.491 | 0.117 | 0.224
Cn1cnc2c(F)c(Nc3ccc(Br)cc3Cl)c(C(=O)NOCCO)cc21 [Selumetinib] + C[C@@H]1COCCN1C2=NC(=NC(=C2)C3(CC3)[S@](=N)(=O)C)C4=C5C=CNC5=NC=C4 [AZD6738] (first compound max 10 µM, 7x7, partner max 10 µM) | 1 | 0.529 | 0.864 | 0.467 | 0.35 | 0.763 | 0.266 | 0.546 | 0.82 | 0.916 | 0.731 | 0.53 | 0.963 | 0.882 | 0.469 | 0.554 | 0.537 | 0.628 | 0.847 | 0.312
CC(=O)Nc1cccc(-n2c(=O)n(C3CC3)c(=O)c3c(Nc4ccc(I)cc4F)n(C)c(=O)c(C)c32)c1 [Trametinib] + Cc1nc(-c2cn3c(n2)-c2ccc(-c4cnn(C(C)(C)C(N)=O)c4)cc2OCC3)n(C(C)C)n1 [Taselisib] (first compound max 1 µM, 7x7, partner max 10 µM) | 0.618 | 0.43 | 0.715 | 0.339 | 0.52 | 0.991 | 0.41 | 0.65 | 0.696 | 0.921 | 0.855 | 0.971 | 0.517 | 0.622 | 0.381 | 0.703 | 0.712 | 0.919 | 0.121 | 0.773
CC1(C)CCC(CN2CCN(c3ccc(C(=O)NS(=O)(=O)c4ccc(NCC5CCOCC5)c([N+](=O)[O-])c4)c(Oc4cnc5[nH]ccc5c4)c3)CC2)=C(c2ccc(Cl)cc2)C1 [Venetoclax] + C1CN(CCC1(C(=O)N[C@@H](CCO)C2=CC=C(C=C2)Cl)N)C3=NC=NC4=C3C=CN4 [Capivasertib] (first compound max 1 µM, 7x7, partner max 3 µM) | 0.295 | 0.281 | 0.155 | 0.11 | 0.329 | 0.258 | 0.251 | 0.189 | 0.469 | 0.139 | 0.326 | 0.518 | 0.957 | 0.21 | 1 | 0.536 | 0.276 | 0.812 | 0.173 | 0.272
CC1(C)CCC(CN2CCN(c3ccc(C(=O)NS(=O)(=O)c4ccc(NCC5CCOCC5)c([N+](=O)[O-])c4)c(Oc4cnc5[nH]ccc5c4)c3)CC2)=C(c2ccc(Cl)cc2)C1 [Venetoclax] + C=CCn1c(=O)c2cnc(Nc3ccc(N4CCN(C)CC4)cc3)nc2n1-c1cccc(C(C)(C)O)n1 [AZD1775] (first compound max 1 µM, partner max 1 µM) | 1 | 0.406 | 0.437 | 0.338 | 0.398 | 0.745 | 0.261 | 0.475 | 0.987 | 0.865 | 0.889 | 0.287 | 1 | 0.873 | 1 | 0.755 | 0.701 | 0.909 | 0.984 | 0.294
CC1(C)CCC(CN2CCN(c3ccc(C(=O)NS(=O)(=O)c4ccc(NCC5CCOCC5)c([N+](=O)[O-])c4)c(Oc4cnc5[nH]ccc5c4)c3)CC2)=C(c2ccc(Cl)cc2)C1 [Venetoclax] + CCN(CCO)CCCOc1ccc2c(Nc3cc(CC(=O)Nc4cccc(F)c4)[nH]n3)ncnc2c1 [AZD2811] (first compound max 1 µM, 7x7, partner max 1 µM) | 0.754 | 0.214 | 0.164 | 0.183 | 0.46 | 0.687 | 0.141 | 0.311 | 1 | 0.5 | 0.394 | 0.534 | 1 | 0.439 | 1 | 0.471 | 0.225 | 0.802 | 0.269 | 0.16
CC1(C)CCC(CN2CCN(c3ccc(C(=O)NS(=O)(=O)c4ccc(NCC5CCOCC5)c([N+](=O)[O-])c4)c(Oc4cnc5[nH]ccc5c4)c3)CC2)=C(c2ccc(Cl)cc2)C1 [Venetoclax] + CN(C)CCCOc1ccc(-c2ccc3ncc4c(c3c2)n(C2CCOCC2)c(=O)n4C)cn1 [AZD0156] (first compound max 1 µM, 7x7, partner max 1 µM) | 0.192 | 0.152 | 0.173 | 0.189 | 0.186 | 0.53 | 0.126 | 0.189 | 0.374 | 0.538 | 0.332 | 0.367 | 0.931 | 0.168 | 1 | 0.567 | 0.181 | 0.793 | 0.627 | 0.252
CC1(C)CCC(CN2CCN(c3ccc(C(=O)NS(=O)(=O)c4ccc(NCC5CCOCC5)c([N+](=O)[O-])c4)c(Oc4cnc5[nH]ccc5c4)c3)CC2)=C(c2ccc(Cl)cc2)C1 [Venetoclax] + COc1cc(Nc2ncc3c(n2)-c2ccc(Cl)cc2C(c2c(F)cccc2OC)=NC3)ccc1C(=O)O [Alisertib] (first compound max 1 µM, 7x7, partner max 10 µM) | 1 | 0.248 | 0.233 | 0.246 | 0.597 | 0.876 | 0.422 | 0.475 | 1 | 0.995 | 0.556 | 0.59 | 0.992 | 0.932 | 1 | 0.474 | 0.475 | 0.851 | 0.474 | 0.399
